Source: patent US20060069132A1, “Azolecarboxamide herbicides” (priority 2004, published 2006)

Tests used:
[1] = system: bermudagrass; assay: Test C pre-/postemergence herbicide test; format: in vivo, Cynodon dactylon; conditions: for Bermudagrass plant response rating: 500 g ai/ha
Summary of the method: (§1)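 Preemergence: seeds planted and treated with compound in non-phytotoxic solvent with surfactant; postemergence: plants at 2 to 18 cm (1- to 4-leaf stage) sprayed likewise. Kept in greenhouse 12 to 14 days, then visually rated against controls, 0 (no effect) to 100 (complete control).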

[2] = system: Surinam grass; assay: Test C pre-/postemergence herbicide test; format: in vivo, Urochloa decumbens
Summary of the method: as §1

[3] = system: cocklebur; assay: Test C pre-/postemergence herbicide test; format: in vivo, Xanthium strumarium
Summary of the method: as §1

[4] = system: goosegrass; assay: Test C pre-/postemergence herbicide test; format: in vivo, Eleusine indica
Summary of the method: as §1

[5] = system: johnsongrass; assay: Test C pre-/postemergence herbicide test; format: in vivo, Sorghum halepense
Summary of the method: as §1

[6] = system: pigweed; assay: Test C pre-/postemergence herbicide test; format: in vivo, Amaranthus retroflexus
Summary of the method: as §1

[7] = system: soybean; assay: Test C pre-/postemergence herbicide test; format: in vivo, Glycine max
Summary of the method: as §1

[8] = system: smallflower umbrella sedge; assay: Test C flooded paddy test; format: in vivo, Cyperus difformis; conditions: for Plant response rating, Sedge, Umbrella: 500 g ai/ha, visual rating after 12 to 14 days
[9] = system: ducksalad; assay: Test C flooded paddy test; format: in vivo, Heteranthera limosa; conditions: for Plant response rating, Ducksalad: 500 g ai/ha, visual rating after 12 to 14 days
[10] = system: morningglory; assay: Test A pre-/postemergence herbicide test; format: in vivo, Ipomoea spp.
Summary of the method: (§2)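 Sandy loam soil given preemergence directed spray; plants at 2 to 10 cm, one- to two-leaf stage, sprayed to runoff postemergence, compounds in non-phytotoxic solvent with surfactant. Injury rated visually versus untreated controls after about ten greenhouse days, 0 (no effect) to 100 (complete control); dash means not tested.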

[11] = system: velvetleaf; assay: Test A pre-/postemergence herbicide test; format: in vivo, Abutilon theophrasti
Summary of the method: as §2

[12] = 62 g ai/ha, preemergence, scale 0 to 100, 0 no effect, 100 complete control
[13] = 125 g ai/ha, scale 0 (no effect) to 100 (complete control), visual, 12 to 14 days, preemergence
[14] = 250 g ai/ha, scale 0-100, preemergence
[15] = Preemergence, scale 0 to 100, 0 no effect, 100 complete control
[16] = 62 g ai/ha, preemergence, scale 0 to 100
[17] = 500 g ai/ha, scale 0 to 100 (0 no effect, 100 complete control), visual, 12 to 14 days, preemergence
[18] = Preemergence, 500 g ai/ha, scale 0 to 100, 0 no effect, 100 complete control
[19] = 125 g ai/ha, scale 0 to 100 (0 no effect, 100 complete control)
[20] = 250 g ai/ha, scale of 0 to 100, 0 is no effect, 100 is complete control
[21] = scale 0 to 100 (0 no effect, 100 complete control)
[22] = 250 g ai/ha, scale 0 to 100 (0 no effect, 100 complete control), visual, 12 to 14 days, preemergence
[23] = 62 g ai/ha, scale 0 to 100 (0 no effect, 100 complete control)
[24] = 125 g ai/ha, scale of 0 to 100, 0 is no effect, 100 is complete control
[25] = Postemergence, 500 g ai/ha, 0 to 100 scale, 0 no effect, 100 complete control
[26] = Postemergence, 2000 g ai/ha, 0 to 100 scale, 0 no effect, 100 complete control
[27] = Preemergence, 2000 g ai/ha, visual rating, 0 to 100 scale (0 no effect, 100 complete control)
[28] = preemergence, 500 g ai/ha, visual injury, 0 to 100 scale (0 no effect, 100 complete control)
[29] = Postemergence, 500 g ai/ha, scale 0 to 100
[30] = Postemergence, 250 g ai/ha, scale 0 to 100, 0 no effect, 100 complete control
[31] = postemergence, 125 g ai/ha, scale 0 to 100
[32] = postemergence, 62 g ai/ha, scale 0 to 100
[33] = Postemergence, 500 g ai/ha, scale 0 to 100, 0 no effect, 100 complete control

SMILES: CCN1N=C(C(C)(C)C)CC1C(=O)Nc1cc(C(=O)N2CC=CC2)ccc1F (racemic) [Compound 310]
- Plant response rating, Bermudagrass [1, 12]: 50
- Plant response rating, Bermudagrass [1, 13]: 85
- Plant response rating, Bermudagrass [1, 14]: 100
- Bermudagrass plant response rating [1, 15]: 100
- Plant response rating, Surinam Grass [2, 16]: 5
- Plant response rating, Surinam Grass [2, 14]: 30
- Plant response rating, Surinam Grass [2, 17]: 50
- Plant response rating, Cocklebur [3, 16]: 0
- Plant response rating, Cocklebur [3, 13]: 0
- Plant response rating, Cocklebur [3, 14]: 5
- Cocklebur plant response rating [3, 18]: 30
- Plant response rating, Goosegrass [4, 16]: 70
- Plant response rating, Goosegrass [4, 13]: 80
- Plant response rating, Goosegrass [4, 14]: 95
- Plant response rating, Goosegrass [4, 17]: 95
- Plant response rating, Johnsongrass [5, 16]: 0
- Plant response rating, Johnsongrass [5, 13]: 10
- Plant response rating, Johnsongrass [5, 14]: 20
- Plant response rating, Johnsongrass [5, 17]: 80
- Plant response rating, Pigweed [6, 16]: 100
- Plant response rating, Pigweed [6, 13]: 100
- Plant response rating, Pigweed [6, 14]: 100
- Plant response rating, Pigweed [6, 17]: 100
- Plant response rating, Soybean [7, 16]: 0
- Plant response rating, Soybean [7, 14]: 30
- Sedge, Umbrella plant response rating ([8]; 62 g ai/ha, scale 0 to 100): 35
- Sedge, Umbrella plant response rating [8, 19]: 85
- Sedge, Umbrella plant response rating [8, 20]: 85
- Plant response rating, Sedge, Umbrella [8, 21]: 85
- Ducksalad plant response rating ([9]; 62 g ai/ha, scale 0 to 100): 45
- Ducksalad plant response rating [9, 19]: 75
- Ducksalad plant response rating [9, 20]: 80
- Plant response rating, Ducksalad [9, 21]: 90

SMILES: C=CCn1nc(C(C)(C)C)cc1C(=O)Nc1cccc(C(=O)NCC)c1 [Compound 56]
- Plant response rating (0 = no effect, 100 = complete control), Bermudagrass ([1]; 62 g ai/ha, preemergence): 85
- Plant response rating, Bermudagrass [1, 13]: 90
- Plant response rating, Bermudagrass [1, 22]: 95
- Bermudagrass plant response rating [1, 15]: 95
- Plant response rating (0 = no effect, 100 = complete control), Surinam Grass ([2]; 62 g ai/ha, preemergence): 10
- Plant response rating, Surinam Grass [2, 13]: 15
- Plant response rating, Surinam Grass [2, 22]: 60
- Surinam Grass plant response rating [2, 18]: 75
- Plant response rating (0 = no effect, 100 = complete control), Cocklebur ([3]; 62 g ai/ha, preemergence): 0
- Plant response rating, Cocklebur [3, 13]: 0
- Cocklebur plant response rating [3, 18]: 0
- Plant response rating (0 = no effect, 100 = complete control), Goosegrass ([4]; 62 g ai/ha, preemergence): 60
- Plant response rating, Goosegrass [4, 13]: 85
- Plant response rating, Goosegrass [4, 22]: 90
- Goosegrass plant response rating [4, 18]: 95
- Plant response rating (0 = no effect, 100 = complete control), Johnsongrass ([5]; 62 g ai/ha, preemergence): 55
- Plant response rating, Johnsongrass [5, 13]: 70
- Plant response rating, Johnsongrass [5, 22]: 85
- Johnsongrass plant response rating [5, 18]: 90
- Plant response rating (0 = no effect, 100 = complete control), Pigweed ([6]; 62 g ai/ha, preemergence): 100
- Plant response rating, Pigweed [6, 13]: 100
- Plant response rating, Pigweed [6, 22]: 100
- Pigweed plant response rating [6, 18]: 100
- Plant response rating (0 = no effect, 100 = complete control), Soybean ([7]; 62 g ai/ha, preemergence): 0
- Plant response rating, Soybean [7, 13]: 0
- Plant response rating, Soybean [7, 22]: 10
- Soybean plant response rating [7, 18]: 15
- Sedge, Umbrella plant response rating [8, 23]: 45
- Sedge, Umbrella plant response rating [8, 24]: 85
- Sedge, Umbrella plant response rating [8, 20]: 90
- Plant response rating, Sedge, Umbrella [8, 21]: 90
- Ducksalad plant response rating [9, 23]: 15
- Ducksalad plant response rating [9, 24]: 55
- Ducksalad plant response rating [9, 20]: 70
- Plant response rating, Ducksalad [9, 21]: 75

SMILES: C=CCNC(=O)c1cccc(NC(=O)c2cc(C(C)(C)C)nn2C)n1 [Compound 318]
- Morningglory plant response rating [10, 25]: 50
- Plant response rating, Morningglory [10, 26]: 55
- Morningglory plant response rating [10, 27]: 50
- Morningglory plant response rating [10, 28]: 20
- Velvetleaf plant response rating [11, 25]: 40
- Plant response rating, Velvetleaf [11, 26]: 50
- Velvetleaf plant response rating [11, 27]: 80
- Velvetleaf plant response rating [11, 28]: 30
- Plant response rating, Bermudagrass [1, 12]: 10
- Plant response rating, Bermudagrass [1, 13]: 70
- Plant response rating, Bermudagrass [1, 14]: 90
- Bermudagrass plant response rating ([1]; Postemergence, scale 0 to 100): 80
- Bermudagrass plant response rating [1, 15]: 95
- Plant response rating, Surinam Grass [2, 16]: 10
- Plant response rating, Surinam Grass [2, 14]: 50
- Plant response rating, Surinam Grass [2, 17]: 60
- Surinam Grass plant response rating [2, 29]: 10
- Plant response rating, Surinam Grass [2, 30]: 0
- Plant response rating, Surinam Grass [2, 31]: 0
- Plant response rating, Surinam Grass [2, 32]: 0
- Plant response rating, Cocklebur [3, 16]: 0
- Plant response rating, Cocklebur [3, 13]: 0
- Plant response rating, Cocklebur [3, 14]: 0
- Cocklebur plant response rating [3, 29]: 100
- Plant response rating, Cocklebur [3, 30]: 10
- Cocklebur plant response rating [3, 18]: 0
- Plant response rating, Cocklebur [3, 31]: 5
- Plant response rating, Cocklebur [3, 32]: 0
- Plant response rating, Goosegrass [4, 16]: 0
- Plant response rating, Goosegrass [4, 13]: 10
- Plant response rating, Goosegrass [4, 14]: 80
- Plant response rating, Goosegrass [4, 17]: 90
- Goosegrass plant response rating [4, 29]: 5
- Plant response rating, Goosegrass [4, 30]: 5
- Plant response rating, Goosegrass [4, 31]: 0
- Plant response rating, Goosegrass [4, 32]: 0
- Plant response rating, Johnsongrass [5, 16]: 0
- Plant response rating, Johnsongrass [5, 13]: 0
- Plant response rating, Johnsongrass [5, 14]: 60
- Plant response rating, Johnsongrass [5, 17]: 95
- Johnsongrass plant response rating [5, 29]: 0
- Plant response rating, Johnsongrass [5, 30]: 0
- Plant response rating, Johnsongrass [5, 31]: 0
- Plant response rating, Johnsongrass [5, 32]: 0
- Plant response rating, Pigweed [6, 16]: 80
- Plant response rating, Pigweed [6, 13]: 95
- Plant response rating, Pigweed [6, 14]: 100
- Plant response rating, Pigweed [6, 17]: 100
- Pigweed plant response rating [6, 29]: 100
- Plant response rating, Pigweed [6, 30]: 100
- Plant response rating, Pigweed [6, 31]: 100
- Plant response rating, Pigweed [6, 32]: 100
- Plant response rating, Soybean [7, 16]: 0
- Plant response rating, Soybean [7, 14]: 10
- Plant response rating, Soybean [7, 17]: 40
- Soybean plant response rating [7, 29]: 90
- Plant response rating, Soybean [7, 30]: 80
- Plant response rating, Soybean [7, 31]: 70
- Plant response rating, Soybean [7, 32]: 65

SMILES: CCn1nc(C(C)(C)C)cc1C(=O)Nc1cc(OC(F)(F)F)ccc1F [Compound 338]
- Morningglory plant response rating [10, 25]: 25
- Plant response rating, Morningglory [10, 26]: 70
- Morningglory plant response rating [10, 27]: 40
- Morningglory plant response rating [10, 28]: 10
- Velvetleaf plant response rating [11, 25]: 40
- Plant response rating, Velvetleaf [11, 26]: 60
- Velvetleaf plant response rating [11, 27]: 50
- Velvetleaf plant response rating [11, 28]: 20
- Bermudagrass plant response rating ([1]; Postemergence, scale 0 to 100): 5
- Plant response rating, Bermudagrass [1, 30]: 0
- Plant response rating, Bermudagrass [1, 31]: 0
- Plant response rating, Bermudagrass [1, 32]: 0
- Plant response rating, Surinam Grass [2, 30]: 0
- Plant response rating, Surinam Grass [2, 33]: 30
- Plant response rating, Surinam Grass [2, 31]: 0
- Plant response rating, Surinam Grass [2, 32]: 0
- Plant response rating, Cocklebur [3, 30]: 5
- Plant response rating, Cocklebur [3, 33]: 5
- Plant response rating, Cocklebur [3, 31]: 0
- Plant response rating, Cocklebur [3, 32]: 0
- Plant response rating, Goosegrass [4, 30]: 10
- Plant response rating, Goosegrass [4, 33]: 10
- Plant response rating, Goosegrass [4, 31]: 5
- Plant response rating, Goosegrass [4, 32]: 0
- Plant response rating, Johnsongrass [5, 30]: 0
- Plant response rating, Johnsongrass [5, 33]: 0
- Plant response rating, Johnsongrass [5, 31]: 0
- Plant response rating, Johnsongrass [5, 32]: 0
- Plant response rating, Pigweed [6, 30]: 80
- Plant response rating, Pigweed [6, 33]: 80
- Plant response rating, Pigweed [6, 31]: 5
- Plant response rating, Pigweed [6, 32]: 0
- Plant response rating, Soybean [7, 30]: 35
- Plant response rating, Soybean [7, 33]: 60
- Plant response rating, Soybean [7, 31]: 30
- Plant response rating, Soybean [7, 32]: 10
